Assays:
MSX2 = test: RT-PCR of MSX2 expression in HHGMC; type: cell-based, human; details: peptide 500 nM, 5 μM, and 50 μM, 72 hours, FIG. 7
Protocol: Specifically, HHGMC (human hair germinal matrix cell, Sciencell, USA) was seeded in a 6-well culture plate at 4×10^5 cells/well and then cultured in MSC complete medium (mesenchymal stem cell complete media) for 24 hours. Next, the medium was replaced with serum free MSC complete medium and cultured again for 24 hours. Then, the HHGMC was treated with the peptide of SEQ ID NO: 1 prepared in the Preparation Example at concentrations of 500 nM, 5 μM, and 50 μM, respectively, and cultured at 37° C. for 72 hours. As a positive control, EGF was treated at a concentration of 50 nM, and as a negative control, HHGMC without any treatment was used. After washing with PBS, RNA was isolated by treating with 300 ? of easy blue (intron, Korea). Next, cDNA was synthesized using a cDNA synthesis kit (enzynomics, Korea) by quantification using nano drop, and PCR was performed using primers for MSX2 (base sequences of the primer are listed in Table 4 below) and PCR premix (enzynomics, Korea). Electrophoresis was performed on a 1.5% agarose gel, and MSX2 mRNA was detected using a band analysis system (Bio-Rad gel image system).

LEF-1 = test: RT-PCR of LEF-1 expression in HHFDPC; type: cell-based, human; details: peptide 500 nM, 5 μM, and 50 μM, 24 hours, FIG. 4
Protocol: (§1) Furthermore, in order to determine whether the β-catenin moves to the nucleus and is activated to affect proliferation and differentiation, whether the expression of LEF-1, c-Myc and cyclin D1 (cyclin D1), which act as downstream factors, increases with β-catenin activation was confirmed through RT-PCR. Specifically, in the same manner as the previous Western blotting experiment, HHFDPC cells were cultured, treated with the peptides of the Preparation Example of the present invention at concentrations of 500 nM, 5 μM, and 50 μM, respectively, and cultured at 37° C. for 24 hours. After washing the cells with PBS, RNA was isolated by treating them with 300 […] of easy blue (intron, Korea). Then, CDNA was synthesized using a cDNA synthesis kit (enzynomics, Korea) by quantifying it with nano drop, and PCR was performed using primers for LEF-1, c-Myc and cyclin D1 (base sequences of the primer are listed in Table 2 below) and PCR premix (enzynomics, Korea). Electrophoresis was performed on a 1.5% agarose gel, and then the mRNA of LEF-1, c-Myc and cyclin D1 was detected using a band analysis system (Bio-Rad gel image system).

β-catenin = test: Western blotting of β-catenin moved to the nucleus in HHFDPC; type: cell-based, human; details: HHFDPC nuclear protein, peptide 500 nM, 5 μM, and 50 μM, 24 hours, FIG. 3
Protocol: In addition, in addition to p-AKT and p-ERK, in order to confirm the activation of β-catenin, which is known to affect cell proliferation and differentiation, whether β-catenin moved into the nucleus was confirmed through Western blotting. Specifically, the HHFDPC as in [Experiment Example 1-1] was seeded in a 6-well culture plate at an amount of 4×10^5 cells/well, cultured in MSC complete medium (mesenchymal stem cell complete media) for 24 hours. Next, the medium was replaced with serum free MSC complete medium and cultured again for 24 hours. Then, the HHFDPC was treated with the peptide of SEQ ID NO: 1 prepared in the Preparation Example at concentrations of 500 nM, 5 μM, and 50 μM, respectively, and cultured at 37° C. for 24 hours. As a positive control, minoxidil was treated at a concentration of 1 μM, and as a negative control, HHFDPC without any treatment was used. After washing with PBS, proteins in the nucleus were isolated using a nuclear protein extraction kit (Thermo scientific, USA). After electrophoresis using a 10% SDS-PAGE gel, it was transferred to a PVDF membrane and blocked using 5% skim milk at room temperature for 30 minutes. […] After washing again with 0.1% PBS-T (0.1% Tween-20 in PBS) three times for 15 minutes each, β-catenin was detected by treatment with ECL solution (GE Healthcare, USA).

cyclin D1 = test: RT-PCR of cyclin D1 expression in HHFDPC; type: cell-based, human; details: peptide 500 nM, 5 μM, and 50 μM, 24 hours, FIG. 4
Protocol: as §1

p-ERK = test: Western blotting of phosphorylated ERK in HHFDPC; type: cell-based, human; details: peptide 500 nM, 5 μM, and 50 µM, 24 hours, FIG. 2
Protocol: (§2) First, phosphorylated forms of AKT and ERK, which act as signaling molecules related to the proliferation of HHFDPC, were confirmed through Western blotting. Specifically, HHFDPC as in [Experiment Example 1-1] above was seeded at 4×10^5 cells/well in a 6-well culture plate, cultured in MSC complete medium (mesenchymal stem cell complete media) for 24 hours, and then the medium was replaced with serum free MSC complete medium and cultured for another 24 hours. Then, the HHFDPC was treated with the peptide of SEQ ID NO: 1 prepared in the Preparation Example at concentrations of 500 nM, 5 μM, and 50 µM, respectively, and cultured at 37° C. for 24 hours. As a positive control, minoxidil was treated at a concentration of 1 μM, and as a negative control, HHFDPC without any treatment was used. Then, Western blotting was performed to detect phosphorylated AKT and phosphorylated ERK. After washing with PBS, the cells were treated with 100 ? of lysis buffer to destroy cells, thereby obtaining cell lysate. After electrophoresis using a 10% SDS-PAGE gel, it was transferred to a PVDF membrane and blocked using 5% skim milk at room temperature for 30 minutes. […] After washing again with 0.1% PBS-T (0.1% Tween-20 in PBS) three times for 15 minutes each, p-AKT and p-ERK were detected by treatment with ECL solution (GE Healthcare, USA).

Ha3-II = test: RT-PCR of Ha3-II expression in HHORSC; type: cell-based, human; details: peptide 500 nM, 5 µM, and 50 μM, 72 hours, FIG. 6
Protocol: (§3) Specifically, HHORSC (human hair outer root sheath cell, Sciencell, USA) was seeded in a 6-well culture plate at 4×10^5 cells/well and then cultured in MSC complete medium (mesenchymal stem cell complete media) for 24 hours. Next, the medium was replaced with serum free MSC complete medium and cultured again for 24 hours. Then, the HHORSC was treated with the peptide of SEQ ID NO: 1 prepared in the Preparation Example at concentrations of 500 nM, […], and 50 μM, respectively, and cultured at 37° C. for 72 hours. As a positive control, EGF was treated at a concentration of 50 nM, and as a negative control, HHORSC without any treatment was used. After washing with PBS, RNA was isolated by treating with 300 ? of easy blue (intron, Korea). Then, cDNA was synthesized using a cDNA synthesis kit (enzynomics, Korea) by quantification using nano drop, and PCR was performed using primers for Ha3-II, Keratin 14, and Keratin 19 (the base sequences of primer are shown in Table 3 below) and PCR premix (enzynomics, Korea). Electrophoresis was performed on a 1.5% agarose gel, and the mRNAs of Ha3-II, Keratin 14, and Keratin 19 were detected using a band analysis system (Bio-Rad gel image system).

Keratin 14 = test: RT-PCR of Keratin 14 expression in HHORSC; type: cell-based, human; details: peptide 500 nM, and 50 μM, 72 hours, FIG. 6
Protocol: as §3

[1] = tested on: HHFDPC (human hair follicle dermal papilla cells); test: MTT proliferation assay in dermal papilla cells; type: cell-based; details: peptide 500 nM, 5 μM, and 50 μM, 72 hours, vs untreated control, FIG. 1
Protocol: While culturing human hair follicle dermal dermal papilla cells (HHFDPC), the absorbance was measured after treatment with the peptide of the present invention to confirm whether there was an effect of promoting the proliferation of the HHFDPC dermal papilla cells.
Specifically, HHFDPC (Sciencell, USA) was seeded at 4×10^3 cells/well in a 96-well culture plate, cultured in MSC complete medium (mesenchymal stem cell complete media, Sciencell, USA) for 24 hours, and then the medium was replaced with serum free MSC complete medium and cultured for another 24 hours. Then, the HHFDPC was treated with the peptide of SEQ ID NO: 1 prepared in the Preparation Example at concentrations of 500 nM, 5 μM, and 50 μM, respectively, and cultured at 37° C. for 72 hours. As a positive control, minoxidil was treated at a concentration of 1 μM, and as a negative control, HHFDPC without any treatment was used. Then, 10 ? of 5 mg/mL MTT solution was added and cultured in a 37° C. CO2 incubator for 4 hours to stain the cells. After removing the medium, the cells were treated with 100 μl of DMSO and shaken for 10 minutes, and the number of HHFDPC cells was confirmed by measuring absorbance at a wavelength of 540 nm using a spectrophotometer.

Keratin 19 = test: RT-PCR of Keratin 19 expression in HHORSC; type: cell-based, human; details: peptide 500 nM, and 50 μM, 72 hours, FIG. 6
Protocol: as §3

p-AKT = test: Western blotting of phosphorylated AKT in HHFDPC; type: cell-based, human; details: peptide 500 nM, 5 μM, and 50 µM, 24 hours, FIG. 2
Protocol: as §2

c-Myc = test: RT-PCR of c-Myc expression in HHFDPC; type: cell-based, human; details: peptide 500 nM, 5 μM, and 50 μM, 24 hours, FIG. 4
Protocol: as §1

[2] = tested on: DKK-1 protein (dickkopf-related protein 1); test: Western blotting of DKK-1 protein in DHT-treated HHFDPC; type: cell-based, human; details: HHFDPC with DHT 100 nM; peptide 500 nM, 5 μM, and 50 μM; 24 hours; vs negative control (DHT only); FIG. 5
Protocol: DKK-1 protein (dickkopf-related protein 1) is a hair loss-related protein known to be highly expressed in individuals with hair loss, especially male pattern hair loss, and its expression is known to be promoted by hormones such as DHT (Dihydrotestosterone). Accordingly, the expression of DKK-1 protein was induced by treating HHFDPC cells with DHT together with the peptide according to the Preparation Example of the present invention, and then the expression level of DKK-1 was measured through Western blotting to determine whether there was an effect of suppressing the expression of DKK-1 protein.
Specifically, HHFDPC as in [Experiment Example 1-1] was seeded in a 6-well culture plate at 4×10^5 cells/well and then cultured in MSC complete medium (mesenchymal stem cell complete media) for 24 hours. Next, the medium was replaced with serum free MSC complete medium and cultured again for 24 hours. In addition, the HHFDPC was treated with the peptide of SEQ ID NO: 1 prepared in Preparation Example at concentrations of 500 nM, 5 μM, and 50 μM, respectively, and at this time, DHT, an expression inducer of DKK-1 protein, was simultaneously treated at a concentration of 100 nM and then cultured at 37° C. for 24 hours. […] After washing again with 0.1% PBS-T (0.1% Tween-20 in PBS) three times for 15 minutes each, DKK-1 protein was detected by treatment with ECL solution (GE Healthcare, USA).

Question: How did the “amount of MSX2 mRNA” value (MSX2) turn out when “GGVPG [peptide of the present invention]” was run?
Answer: increased further compared to the untreated control group

Question: What about the “amount of LEF-1 mRNA” value (LEF-1) of the same substance?
Answer: increased further compared to the control group without any treatment

Question: What about the “migration of β-catenin to the nucleus (activation of β-catenin)” value (β-catenin) of the same substance?
Answer: migration due to activation of β-catenin increased

Question: What about the “amount of cyclin D1 mRNA” value (cyclin D1) of the same substance?
Answer: increased further compared to the control group without any treatment

Question: What about the “phosphorylation of ERK (p-ERK)” value (p-ERK) of the same substance?
Answer: increased compared to the control group not treated with the peptide

Question: What about the “amount of Ha3-II mRNA” value (Ha3-II) of the same substance?
Answer: increased further compared to the control group that did not receive any treatment

Question: And the “amount of Keratin 14 mRNA” value (Keratin 14)?
Answer: increased further compared to the control group that did not receive any treatment

Question: What about the “proliferation of HHFDPC (absorbance at 540 nm, MTT)” value [1] of the same substance?
Answer: promoted depending on the concentration of the treated peptide

Question: And the “amount of Keratin 19 mRNA” value (Keratin 19)?
Answer: increased further compared to the control group that did not receive any treatment

Question: And the “phosphorylation of AKT (p-AKT)” value (p-AKT)?
Answer: increased compared to the control group not treated with the peptide

Question: And the “amount of c-Myc mRNA” value (c-Myc)?
Answer: increased further compared to the control group without any treatment

Question: And the “amount of DKK-1 protein” value [2]?
Answer: reduced

Reference: patent US20250129120A1, “PEPTIDE HAVING ACTIVITY FOR PREVENTING HAIR LOSS OR PROMOTING HAIR GROWTH, AND USE THEREOF” (CAREGEN CO., LTD., priority 2021, published 2025)
